# In patent publication US8470868B2, “Formulation for the prevention of cardiovascular disease” (priority 2000, dated 2013):
# Marks after values point to notes of the source that are not given here.
# Legend:
# [1] = Prevalence of adverse effects in randomised placebo controlled trials (treated minus control); format: in vivo, human; details: daily dose: hydrochlorothiazide 12.5 mg, atenolol 25 mg, enalapril 5 mg, aspirin 75 mg; for Prevalence of any adverse effect in randomised trials (treated minus control) / Prevalence of serious adverse effects (those that warranted withdrawal from randomised trial) (treated minus control): atorvastatin 10 mg, folic acid 0.8 mg
# From the text: The dose of each medication has been chosen to maximise the ratio of benefit to hazard. It is recognised that some persons taking a combination of six drugs would develop adverse effects that were unacceptable. The adverse effects attributable to each of the component medications would be made clear to persons taking the combined formulation and alternative formulations omitting one or more of the component ingredients, with or without a substitute ingredient, would be available for persons unable to tolerate one component. […]
# [2] = randomised trials, high risk and low risk persons; platelet function not measured; cited from earlier work
# [3] = atorvastatin 10 mg daily; cited from earlier work
# [4] = Expected reduction in risk of stroke from the risk factor change (cohort studies and randomised trials); format: in vivo, human; details: daily dose: hydrochlorothiazide 12.5 mg, atenolol 25 mg, enalapril 5 mg, atorvastatin 10 mg, aspirin 75 mg, folic acid 0.8 mg
# From the text: This combined estimate is based on the fact that the effects on the four different risk factors are unrelated and so the expected effects of changing each one will be independent of each other. This expectation is supported by two classes of evidence. […] For example the ratio of the risk of a disease event in persons with high blood pressure and the risk in persons with low blood pressure is similar, irrespective of the values of serum cholesterol and other risk factors. Second, some randomised clinical trials have used combinations of two of the drugs (for example beta blockers and aspirin) in patients with ischaemic heart disease and have shown that the effects are independent (that is, the relative risk in patients who took two drugs (compared with the risk in those who took none) was similar to the relative risk in persons taking one of the drugs multiplied by the relative risk in persons taking the other drug). Accordingly, the effect of the different drugs in combination in Table 3 has been calculated by multiplying the effects of each as shown in footnotes h and j.
# The corresponding reductions in incidence of ischaemic heart disease and stroke are those to be expected from the blood pressure reductions, from published analyses of cohort studies and randomised controlled trials of blood pressure and ischaemic heart disease and stroke (references 1, 5).
# [5] = Randomised controlled trials of folic acid: plasma homocysteine reduction; format: in vivo, human; details: unpublished randomised controlled trial performed by the applicant
# [6] = cited from earlier work
SMILES,Prevalence of any adverse effect in randomised trials (treated minus control) [1],Prevalence of serious adverse effects (those that warranted withdrawal from randomised trial) (treated minus control) [1],Commonest adverse effects [1],Effect on the incidence of heart attacks and stroke [2],Associated physiological variable (reduction produced by drug): serum cholesterol [3],Expected reduction in risk of stroke [4],Lowest folic acid dose that produces the maximum reduction in homocysteine [5] [mg],Associated physiological variable (reduction produced by drug): plasma/serum homocysteine ([6]; folic acid 0.8 mg daily),"Maximum reduction in plasma homocysteine ([6]; meta-analysis of published trials, folic acid doses between 1 mg and 5 mg, maximum produced by 1 mg) [µmol/L]"
NS(=O)(=O)c1cc2c(cc1Cl)NCNS2(=O)=O [Hydrochlorothiazide],1.4%^a,0.1%^a,–,–,–,–,–,–,–
CC(C)NCC(O)COc1ccc(CC(N)=O)cc1 (centres unmarked) [Atenolol],5.6%^a,0.9%^a,–,–,–,–,–,–,–
CCOC(=O)[C@H](CCc1ccccc1)N[C@@H](C)C(=O)N1CCC[C@H]1C(=O)O [Enalapril],2.1%^a,0.2%^a,cough,–,–,–,–,–,–
CC(=O)Oc1ccccc1C(=O)O [Aspirin],1.8%^b,0.7%^b,–,reduces the incidence of heart attacks and stroke in both high risk and low risk persons,–,–,–,–,–
CC(C)c1c(C(=O)Nc2ccccc2)c(-c2ccccc2)c(-c2ccc(F)cc2)n1CC[C@@H](O)C[C@@H](O)CC(=O)O [Atorvastatin],0.1%,<0.1%,–,–,(1.8 mmol/l,50%^d,–,–,–
Nc1nc2ncc(CNc3ccc(C(=O)N[C@@H](CCC(=O)O)C(=O)O)cc3)nc2c(=O)[nH]1 [Folic acid],<0.1%,<0.1%,–,–,–,10%^g,0.8,(3 μmol/l,3
